Laboratory results published in PMC12147183, “Lacritin cleavage-potentiated targeting of iron - respiratory reciprocity promotes bacterial death” (The Journal of Biological Chemistry, 2025).
Peptide text beside a SMILES is read from it.

Assays:
His-tagged PotH = target: T1, His-tagged PotH (Escherichia coli, UniProt P31135); assay: His-tagged PotH binding to peptide columns; set-up: species or system E. coli; details: step gradient 0.3, 0.5, 1.0 M KCl, 0.05% dodecyl-β-D-maltopyranoside, 4 °C, anti-His Western blot, n = 3
T1 construct: host or cells: legend says PA14
Method: We used the pFeoB plasmid ([6]) with feoB insert from P. aeruginosa PAO1 in pET41-a(+) with a C-terminal 8-His tag and kanamycin-resistant cassette, and E. coli EcCD00397460 plasmid (DNASU Plasmid Repository, Tempe Arizona) with potH insert in PCDF Bravo with C-terminal 10-His tag and streptomycin-resistant cassette. Plasmids of each were generated using standard procedures. His-tagged FeoB or PotH proteins in the supernatant were captured on Ni-Sepharose for 4 h with end-over-end rotation at 4 °C, washed with 10 mM HEPES potassium salt, 10% glycerol, 0.5 M NaCl, 10 mM MgSO4, 10 mM imidazole, and 0.05% dodecyl-β-D-maltopyranoside and eluted with the same wash buffer but containing 0.2 M NaCl and 0.5 M imidazole. Eluted FeoB and PotH were concentrated into 10 mM HEPES potassium salt, 10% glycerol, 10 mM MgSO4, 0.05% dodecyl-β-D-maltopyranoside and 0.15 M NaCl respectively on Amicon Ultra-0.5 Centrifugal UFC505024, UFC503024 and UFC900596 filter units.
N-104 and C-95 columns (1 ml each) equilibrated in 10 mM HEPES potassium salt, 10% glycerol, 10 mM MgSO4, 0.05% dodecyl-β-D-maltopyranoside, and 0.15 M NaCl were individually mixed at 4 °C overnight with purified FeoB and PotH. […]

Fe^2+ uptake by PA14 = assay type: cell-based, Pseudomonas aeruginosa
Method: Iron depletion was induced in PA14 cells (5 × 10^9 cfu in 10 ml 10 mM Na2HPO4, 1.8 mM KH2PO4, 2.7 mM KCl, 137 mM NaCl (pH 7.2) by treatment with the chelator 1 mM 2,2′-bipyridyl at room temperature for 1 h. After washing twice with 0.9% NaCl, cells were suspended in 1 ml of 1 mM Na2HPO4, 0.18 mM KH2PO4, 0.27 mM KCl, 13.7 mM NaCl for treatment without or with 1, 10, 25, 50 or 100 μM of N-104 (or negative control N-80/C-25 or C-95) for 45 min at 35 °C, incubated at the same temperature for 15 min with 100 μM FeSO4 and 13 mM ascorbic acid, washed twice with 1 mM Na2HPO4, 0.18 mM KH2PO4, 0.27 mM KCl, and 13.7 mM NaCl, and pelleted at 12,000g. The ferrozine assay ([54]) was subsequently employed. Briefly, cells in pellets were lysed with 20 μl of 50 mM NaOH, partially neutralized with 20 μl of 10 mM HCl, subjected to iron release with 20 μl of acidified 0.29 M KMnO4 for 30 min at 80 °C, cooled to room temperature, incubated with 7 μl of 30 mM ferrozine, 1.1 μl of 180 mM neocuproine, 15 μl of 5 M ammonium acetate and 15 μl of 1 M ascorbic acid for 30 min at room temperature and then centrifuged at 21,000g for 10 min. Cellular iron uptake could then be assessed from the supernatant OD565. Single-molecule transport per cell was estimated using a standard curve.

[1] = tested on: ^14C-spermidine uptake by PA14; assay type: cell-based, Pseudomonas aeruginosa
Method: 100 μl aliquots (0.8 × 10^8 cfu) of PA14 cell cultures in 1 mM Na2HPO4, 0.18 mM KH2PO4, 0.27 mM KCl, 13.7 mM NaCl without or with 1, 10, 25, 50 or 100 μM N-104 (or N-80/C-25 or C-95) for 45 min at 35 °C were incubated with 1 μl of 10 mM [1,4-^14C]putrescine (0.1 mCi/ml; ARC-0245–250, American Radiolabeled Chemicals) or [1,4-^14C]spermidine (0.1 mCi/ml; ARC-3138–50, American Radiolabeled Chemicals) for 15 min at 35 °C. Cell pellets were washed four times with 100 μl of 10 mM Na2HPO4, 1.8 mM KH2PO4, 2.7 mM KCl, 137 mM NaCl (pH 7.2) and then transferred to 4 ml of scintillation fluid (1200.437, PerkinElmer OptiPhase HiSafe 3) for analysis in a Beckman Coulter LS6500. Also assessed was radioactivity from the last wash. Single-molecule transportation per cell was estimated using standard curves for each radiolabeled polyamine.

GKY20 = GKY20 (Homo sapiens, UniProt P00734); assay: Dot blot binding assay on immobilized GKY20; details: 20 μM peptide, 2 h at 35 °C, LI-COR detection
Method: After washing three times for 10 min, each with 10 ml of 10 mM Na2HPO4, 1.8 mM KH2PO4, 2.7 mM KCl, 137 mM NaCl (pH 7.2), nitrocellulose membranes were incubated overnight at 4 °C with 1 μg/ml of either rabbit polyclonal ab-C-term with specificity for the C-terminal 54 amino acids of lacritin ([86]) appropriate for N-104 or its analogs, or with rabbit anti-lacritin N-terminus antibody ab-N-term appropriate for C-95. Membranes washed three times for 10 min each with 10 ml of 10 mM Na2HPO4, 1.8 mM KH2PO4, 2.7 mM KCl, 137 mM NaCl (pH 7.2), were then incubated with 0.1 μg/ml of IRDye 680RD labeled donkey antirabbit IgG (926-68073, LI-COR) as described above for LI-COR Odyssey CLx detection.

T1 sequence (P31135 whole entry): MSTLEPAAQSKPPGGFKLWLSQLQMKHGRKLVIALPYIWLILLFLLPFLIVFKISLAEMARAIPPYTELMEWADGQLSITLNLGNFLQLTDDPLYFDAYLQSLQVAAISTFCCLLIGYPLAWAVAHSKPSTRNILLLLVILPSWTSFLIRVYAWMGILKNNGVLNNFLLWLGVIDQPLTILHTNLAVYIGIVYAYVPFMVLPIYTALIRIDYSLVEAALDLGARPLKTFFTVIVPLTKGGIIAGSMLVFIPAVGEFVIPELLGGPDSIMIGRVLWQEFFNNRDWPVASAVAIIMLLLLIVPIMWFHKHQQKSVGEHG

C[C@H](NC(=O)CNC(=O)[C@@H](NC(=O)[C@H](CO)NC(=O)[C@H](CC(=O)O)NC(=O)[C@H](CO)NC(=O)[C@H](CO)NC(=O)[C@H](C)NC(=O)[C@H](CC(=O)O)NC(=O)[C@@H](N)CCC(=O)O)[C@@H](C)O)C(=O)N[C@@H](CC(=O)O)C(=O)N1CCC[C@H]1C(=O)N[C@@H](C)C(=O)N[C@@H](CCC(N)=O)C(=O)N[C@@H](CCC(=O)O)C(=O)N[C@@H](C)C(=O)NCC(=O)N[C@H](C(=O)N[C@@H](CO)C(=O)N[C@@H](CCCCN)C(=O)N1CCC[C@H]1C(=O)N[C@@H](CC(N)=O)C(=O)N[C@@H](CCC(=O)O)C(=O)N[C@@H](CCC(=O)O)C(N)=O)[C@@H](C)O [C-95, reference compound] (H-EDASSDSTGADPAQEAGTSKPNEE-NH2)
KCl elution of His-PotH from immobilized peptide (His-tagged PotH): lacked
effect on exogenous Fe^2+ uptake (Fe^2+ uptake by PA14; 1 to 100 μM peptide): had no effect
effect on ^14C-spermidine uptake ([1]; 1 to 100 μM peptide): had no effect
binding to nitrocellulose-immobilized GKY20 (GKY20): Only N-104 bound to GKY20

CC(=O)N[C@@H](C)C(=O)N[C@@H](CCC(N)=O)C(=O)N[C@@H](CCCCN)C(=O)N[C@@H](CC(C)C)C(=O)N[C@@H](CC(C)C)C(=O)N[C@@H](CCCCN)C(=O)N[C@@H](CCCCN)C(=O)N[C@@H](Cc1ccccc1)C(=O)N[C@@H](CO)C(=O)N[C@@H](CC(C)C)C(=O)N[C@@H](CC(C)C)C(=O)N[C@@H](CCCCN)C(=O)N1CCC[C@H]1C(=O)N[C@@H](Cc1c[nH]c2ccccc12)C(=O)N[C@@H](C)C(=O)O [N-104] (Ac-AQKLLKKFSLLKPWA-OH)
KCl elution of His-PotH from immobilized peptide (His-tagged PotH): eluted with 0.5 and 1 M but not 0.3 M KCl
IC50 (Fe^2+ uptake by PA14; 1 h): 10 µM
IC50 [1]: 10 µM
binding to nitrocellulose-immobilized GKY20 (GKY20): bound to GKY20
